Source: patent publication US11440907B1 (Merck Patent GmbH, priority 2018, dated 2022)

System: β-catenin-TCF-mediated reporter transcription activity in Colo 205 cells
Assay: Colo 205 reporter assay (TCF/LEF promoter-driven firefly luciferase)
Type: cell-based
Conditions: Homo sapiens; Colo 205 TCF/LEF luciferase reporter, 5 hours after compound addition, 384 well; read-out: Colo205 IC50
Source text: The compounds of the invention described herein were screened using the assay procedure for β-catenin-TCF-mediated reporter transcription activity described below.
Reporter cell lines were generated by stably transfecting cells of cancer cell lines (e.g., colon cancer) with a plasmid reporter construct (From SABiosciences, a QIAGEN company) that includes TCF/LEF promoter driving expression of the firefly luciferase gene. TCF/LEF reporter constructs were made in which TCF/LEF promoter, a promoter with optimal number of TCF/LEF binding sites designed by SABiosciences, was linked upstream of the firefly luciferase gene. This construct could also include a puromycin resistance gene as a selectable marker. This construct could also be used to stably transfect Colo 205 cells, a colon cancer cell line having a mutated APC gene that causes a constitutively active β-catenin. A control cell line was generated using another plasmid construct containing the luciferase gene under the control of a CMV basal promoter which is not activated by β-catenin.
Colo 205 Cultured cells with a stably transfected reporter construct were plated at approximately 10,000 cells per well into 384 well multi-well plates for twenty four hours. The testing compounds were then added to the wells in 2-fold serial dilutions using a twenty micromolar top concentration. A series of control wells for each cell type received only compound solvent. Five hours after the addition of compound, reporter activity for luciferase was assayed, by addition of the SteadyGlo luminescence reagent (Promega). The reporter luminescence activity was measured using Pherastar plate reader (BMG Labtech). Readings were normalized to DMSO only treated cells, and normalized activities were then used in the IC50 calculations. The Colo 205 reporter assay data are summarized in Table 3: A<0.3 μM; 0.3 μM≤B<1.0 μM; 1.0 μM≤C<5.0 μM; D≥5.0 μM.

IC50 [nM] | Compound
300 to 1000 | Cc1cc(N2CCCOCC2c2cc([N+](=O)[O-])ccc2Cl)nc(N)n1 (stereo not shown) [I-72, 4-(3-(2-chloro-5-nitrophenyl)-1,4-oxazepan-4-yl)-6-methylpyrimidin-2-amine]
< 300 | COc1ccc(OC)c([C@H]2COCCCN2c2cc(C)nc(N)n2)c1 (single isomer, unassigned) [I-101]
300 to 1000 | Cc1cc(N2CCCOCC2c2cc([S+](C)[O-])ccc2Cl)nc(N)n1 (racemic) [I-110, (+/−)-4-(3-(2-chloro-5-(methylsulfinyl)phenyl)-1,4-oxazepan-4-yl)-6-methylpyrimidin-2-amine]
< 300 | COc1ccc(Cl)c([C@H]2COCCCN2c2cc(C)nc(N)n2)c1 (single isomer, unassigned) [I-138]
< 300 | COc1ccc(O)cc1[C@H]1CCCCCN1c1cc(C)nc(N)n1 (single isomer, unassigned) [I-127]
300 to 1000 | Cc1cc(N2CCCOC[C@H]2c2cc(C(O)C(F)(F)F)ccc2Cl)nc(N)n1 (single isomer, unassigned) [I-146]
300 to 1000 | COc1ccc(Cl)c([C@H]2CCCCCN2c2cc(C)nc(N)n2)c1 (single isomer, unassigned) [I-135]
< 300 | COc1ccc(O)cc1C1CCCCCN1c1cc(C)nc(N)n1 (stereo not shown) [I-107, 3-[1-(2-amino-6-methyl-pyrimidin-4-yl)azepan-2-yl]-4-methoxy-phenol]
300 to 1000 | Cc1cc(Nc2ccc(Cl)c(C3COCCCN3c3cc(C)nc(N)n3)c2)nc(N)n1 (stereo not shown) [I-294]
300 to 1000 | Cc1cc(N2CCCOCC2c2ccc(-n3cccn3)cc2Cl)nc(N)n1 (racemic) [I-133, (+/−)-4-(3-(2-chloro-4-(1H-pyrazol-1-yl)phenyl)-1,4-oxazepan-4-yl)-6-methylpyrimidin-2-amine]
300 to 1000 | COc1ccc(C(=O)N(C)C)cc1C1CCCCCN1c1cc(C)nc(N)n1 (racemic) [I-115, (+/−)-3-(1-(2-amino-6-methylpyrimidin-4-yl)azepan-2-yl)-4-methoxy-N,N-dimethylbenzamide]
300 to 1000 | Cc1cc(N2CCCOCC2c2ccc(C(=O)N(C)C3CCOCC3)cc2Cl)nc(N)n1 (racemic) [I-153, (+/−)-4-(4-(2-amino-6-methylpyrimidin-4-yl)-1,4-oxazepan-3-yl)-3-chloro-N-methyl-N-(tetrahydro-2H-pyran-4-yl)benzamide]
300 to 1000 | Cc1cc(N2CCCOCC2c2cc3c(cc2Cl)OCO3)nc(N)n1 (racemic) [I-113, (+/−)-4-[3-(6-chloro-1,3-benzodioxol-5-yl)-1,4-oxazepan-4-yl]-6-methyl-pyrimidin-2-amine]
300 to 1000 | COCC(=O)Nc1ccc(Cl)c(C2COCCCN2c2cc(C)nc(N)n2)c1 (stereo not shown) [I-90]
300 to 1000 | Cc1cc(N2CCCOC[C@@H]2c2ccc(C#N)cc2Cl)nc(N)n1 (single isomer, unassigned) [I-97]
300 to 1000 | CSc1ccccc1C1CCCCCN1c1cc(C)nc(N)n1 (racemic) [I-5, (+/−)-4-methyl-6-(2-(2-(methylthio)phenyl)azepan-1-yl)pyrimidin-2-amine]
300 to 1000 | COc1cc(S(C)(=O)=O)ccc1C1CCCCCN1c1cc(C)nc(N)n1 (racemic) [I-88, (+/−)-4-(2-(2-methoxy-4-(methylsulfonyl)phenyl)azepan-1-yl)-6-methylpyrimidin-2-amine]
300 to 1000 | Cc1cc(N2CCCOCC2c2ccc(C(=O)N3CCCC3)cc2Cl)nc(N)n1 (racemic) [I-151, (+/−)-(4-(4-(2-amino-6-methylpyrimidin-4-yl)-1,4-oxazepan-3-yl)-3-chlorophenyl)(pyrrolidin-1-yl)methanone]
300 to 1000 | COc1ccc(OC)c(C2COCCCN2c2cc(C)nc(N)n2)c1 (racemic) [I-93, (+/−)-4-[3-(2,5-dimethoxyphenyl)-1,4-oxazepan-4-yl]-6-methyl-pyrimidin-2-amine]
300 to 1000 | Cc1cc(N2CCCOCC2c2cc(NC(=O)OC(C)(C)C)ccc2Cl)nc(N)n1 (stereo not shown) [I-158]
300 to 1000 | Cc1cc(N2CCCOCC2c2cc(-c3ccn[nH]3)ccc2Cl)nc(N)n1 (racemic) [I-157, (+/−)-4-(3-(2-chloro-5-(1H-pyrazol-5-yl)phenyl)-1,4-oxazepan-4-yl)-6-methyl-pyrimidin-2-amine]

System: XBP1(u)-luciferase splicing reporter in HepG2 hepatoma cells
Assay: HepG2 XBP1 reporter assay (XBP1(u)-Luc)
Type: cell-based
Conditions: Homo sapiens, 6 h, six hours after addition of compound
Source text: HepG2 XBP1 Reporter Assay
HepG2 hepatoma cells were transduced with a retrovirus encoding the cDNA for unspliced (u) XBP1, which contains a non-processed intron, fused to the cDNA for firefly luciferase. Upon induction of ER stress, the non-processed intron of XBP1(u) is spliced out by active IRE1alpha endonuclease. The resulting spliced (s) XBP1 is now in frame with luciferase which causes the production of active luciferase protein, resulting in bioluminescence
HepG2 XBP1(u)-Luc cells were plated […] Cultured cells with a stably transfected reporter construct were plated at approximately 30,000 cells per well into 96 well multi-well plates for twenty four hours. The testing compounds were then added to the wells in 3-fold serial dilutions using a twenty seven micromolar top concentration. A series of control wells for each cell type received only compound solvent. Six hours after the addition of compound, reporter activity for luciferase was assayed, by addition of the SteadyGlo luminescence reagent (Promega). The reporter luminescence activity was measured using Pherastar plate reader (BMG Labtech). Readings was normalized to DMSO only treated cells, and normalized activities were then used in the IC50 calculations. The HepG2 XBP1 reporter assay data are summarized in Tables 3-5: A<0.6 μM; 0.6 μM≤B<2.0 μM; 2.0 μM≤C<5.0 μM; D≥5.0 μM.

IC50 [nM] | Compound
2000 to 5000 | Cc1cc(N2CCCOC[C@H]2c2ccc([C@@H]3CCCN3)cc2Cl)nc(N)n1 [D-88]
< 600 | Cc1cc(N2CCCOCC2c2cc(O)c(OC(F)(F)F)cc2Cl)nc(N)n1 [D-74]
≥ 5000 | Cc1cc(N2CCCOCC2c2ccc(Cl)cc2C(=O)O)nc(N)n1 [D-177]
600 to 2000 | Cc1cc(N2CCCOCC2c2cc(O)c(S(C)(=O)=O)cc2Cl)nc(N)n1 [D-79]
< 600 | Cc1cc(N2CCCOC[C@@H]2c2ccc([C@H]3CCCN3)cc2Cl)nc(N)n1 [D-90]
600 to 2000 | Cc1cc(N2CCCOCC2c2cc(O)c(NC(=O)CC(C)(C)O)cc2Cl)nc(N)n1 [D-100]
≥ 5000 | Cc1cc(N2CCCOC[C@@H]2c2cc(O)c(C(=O)NC3CC3)cc2Cl)nc(N)n1 [D-131]
< 600 | Cc1cc(N2CCCOC[C@@H]2c2cc(CN)c(C)cc2Cl)nc(N)n1 [D-75]
600 to 2000 | Cc1cc(N2CCCOCC2c2ccc(NC(=O)CC(C)C)cc2Cl)nc(N)n1 [D-92]
< 600 | CCc1ccccc1[C@H]1COCCCN1c1cc(C)nc(N)n1 [D-106]
≥ 5000 | COC(=O)c1cc(Cl)c(C2COCCCN2c2cc(C)nc(N)n2)cc1C#N [D-135]
< 600 | Cc1cc(N2CCCOC[C@H]2c2cnc(CS(C)(=O)=O)cc2Cl)nc(N)n1 [D-76]
< 600 | CCOc1cc([C@H]2COCCCN2c2cc(C)nc(N)n2)c(Cl)cc1OCC(N)=O [D-101]
≥ 5000 | Cc1cc(N2CCCOC[C@H]2c2cc(O)c(C(=O)NC3CC3)cc2Cl)nc(N)n1 [D-186]
2000 to 5000 | COC(=O)Cc1cc(C2COCCCN2c2cc(C)nc(N)n2)c(Cl)cc1C#N [D-53]
600 to 2000 | Cc1cc(N2CCCOCC2c2ccc(Cl)cc2C#N)nc(N)n1 [D-107]
600 to 2000 | Cc1cc(N2CCCOCC2c2cc(CN)c(Cl)cc2C)nc(N)n1 [D-73]

Compound | IC50 [nM]
Cc1cc(N2CCCOCC2c2sc(Cl)nc2Cl)nc(N)n1 [D-103] | 2000 to 5000

Same assay, conditions: Homo sapiens, 6 hours after compound addition, Table 4

IC50 [nM] | Compound
600 to 2000 | Cc1cc(N2CCCOCC2c2ccc(O[C@H](C)CO)cc2Cl)nc(N)n1 (stereo partly drawn) [C-60, (R)-2-{4-[4-(2-Amino-6-methyl-pyrimidin-4-yl)-[1,4]oxazepan-3-yl]-3-chloro-phenoxy}-propan-1-ol]
2000 to 5000 | COc1cc(C2COCCCN2c2cc(C)nc(N)n2)c(Cl)cc1Cl (stereo not shown) [C-46]
< 600 | Cc1cc(N)nc(N2CCCOCC2c2cc3c(cc2Cl)CCN3C)c1 (stereo not shown) [C-54]
< 600 | Nc1nccc(N2CCCOC[C@@H]2c2cc3c(cc2Cl)OCCCO3)n1 [C-72]
2000 to 5000 | Cc1cc(N2CCCOCC2c2cc3c(cc2Cl)CCCN3)nc(N)n1 (stereo not shown) [C-88]
< 600 | Cc1cc(N2CCCOC[C@@H]2c2cc3c(cc2Cl)NCC3)nc(N)n1 [C-59]
600 to 2000 | COc1cc(Cl)c([C@H]2COCCCN2c2cc(C)nc(N)n2)cc1OC(C)C [C-144]
< 600 | Cc1cc(N2CCCOCC2c2ccc(OCC(N)=O)cc2Cl)nc(N)n1 (stereo not shown) [C-53, 2-{4-[4-(2-Amino-6-methyl-pyrimidin-4-yl)-[1,4]oxazepan-3-yl]-3-chloro-phenoxy}-acetamide]
< 600 | Cc1cc(N2CCCOCC2c2ccc(OC[C@H](O)CO)cc2Cl)nc(N)n1 (stereo partly drawn) [C-61, (R)-3-{4-[4-(2-Amino-6-methyl-pyrimidin-4-yl)-[1,4]oxazepan-3-yl]-3-chloro-phenoxy}-propane-1,2-diol]
600 to 2000 | CC(=O)Nc1cc(Cl)c(N2CCCOCC2c2cc(C)nc(N)n2)cc1C (stereo not shown) [C-143]
600 to 2000 | Cc1cc(N2CCCOCC2c2cc(CS(C)(=O)=O)ccc2Cl)nc(N)n1 (stereo in doubt) [C-52, 4-[(R)-3-(2-Chloro-5-methanesulfonylmethyl-phenyl)-[1,4]oxazepan-4-yl]-6-methyl-pyrimidin-2-ylamine]
600 to 2000 | Cc1cc(N2CCCOCC2c2cc3c(cc2Cl)CCC3)nc(N)n1 (stereo not shown) [C-26]
≥ 5000 | Nc1nccc(N2CCCOC[C@H]2c2cc3c(cc2Cl)OCCCO3)n1 [C-71]
